According to ChEMBL document CHEMBL1127112, “Synthesis and pharmacologic activity of hydroxyacetophenone-substituted benzophenone/xanthone leukotriene B4 receptor antagonists” (Bioorg Med Chem Lett, 1993):

Species: Homo sapiens
Assay: Compound was evaluated for inhibition of LTB4 induced chemotaxis of human neutrophils
Assay type: functional
For `CCc1cc(C(C)=O)c(O)cc1OCCCOc1ccc(C(=O)c2cccc(C(=O)O)c2)cc1CCC(=O)O`, the IC50 was 16 µM. `CCc1cc(C(C)=O)c(O)cc1OCCCCCC(C)(C)c1nn[nH]n1` [LY-255283] was tested, and the IC50 was 7.4 µM. Compound `CCc1cc(C(C)=O)c(O)cc1OCCCOc1ccc2c(=O)c3cc(C(=O)O)ccc3oc2c1CCC(=O)O` has an IC50 of 0.32 µM. `COc1ccc(/C=C/CCCCOc2ccc(C(=O)c3cccc(C(=O)O)c3)cc2CCC(=O)O)cc1` was tested, and the IC50 was 6 µM.
